Experimental data: patent US20010046497A1, “G-protein coupled receptor and methods” (priority 2000, published 2001)
pEC50: −log10 of the molar value.

How the values were obtained:
Assay type in all cases: cell-based
SP168 receptor [1] = target: T1, SP168 receptor (Homo sapiens, UniProt Q9H244); assay: FLIPR Ca2+ assay, SP168 co-transfected with Gq/i3 in NIH3T3 cells (agonists); design: expressed in transfected cells; host or cells: NIH3T3 cells, co-transfected with Gq/i3; conditions: for pEC50: FLIPR, peak Ca2+ increment, SP168 + Gq/i3 transfected cells
Protocol: (§1) In order to identify SP168 receptor ligands the SP168 open reading frame was subcloned into the pcDNA3.1 expression vector under the control of the CMV promoter and transfected into mammalian cells. After allowing two days for receptor expression, the transfected cells were seeded into 96 well plates, loaded with the Ca^2+ sensitive Fluo-3AM dye and challenged with various compounds. The peak increments in Ca^2+ evoked by the test compounds were measured using the Fluorometric Inaging Plate Reader (FLIPR) system. The endogenous ligand of the SP168 receptor was purified from rat spinal cords using a series of chromatography steps and its structure was identified as being ADP by Mass spectroscopy. […] In addition to ADP, other agonists were also identified for SP168.
SP168 receptor cDNA was subdloned into the pcDNA3.1 expression vector (Invitrogen) and transiently co-transfected with chimera G protein Gq/i3 into CHO-DHFR^− (ATCC CRL-9096) cells using lipofectamine (Gibco- BRL). Chimera G protein Gq/i3 was constructed by replacing the C-terminus five amino acid residues of human Gqa with the five amino acid residue of human Gi3a (Conklin et al., Nature, 363, p274-276). pCDNA 3.1 vector DNA was also co-transfected with chimera G protein Gq/i3 as a negative control. The transfected cells were seeded into 96 well plates and incubated overnight at 37° C. in a tissue culture incubator. The growth medium was aspirated and replaced with 100 μl of loading medium (DMEM containing 1% FBS, […] Fluo-3-AM/10% pluronic acid and 2.5 mM Probenecid) and incubated for 1 hour at 37° C. The cells were subsequently washed 3 times with Hank's BSS buffer containing 20 mM HEPES, 2.5 mM Probenecid, and 0.1% BSA using the gentle setting in a Denley cell washer (Denley Instruments). The washed cells were placed in a Fluorometric Imaging Plate Reader (FLIPR) and changes in cellular fluorescence recorded after the addition of various dilutions of tissue extract fractions.
(§2) Pharmacology of SP168—The pharmacological profile of SP168 was fuirther characterized by using the FLIPR and cAMP assays. SP168 was co-transfected with Gq/i3 to NIH3T3 cells, and a variety of nucleotides were screened by the FLIPR assay. […] EC50 for background ATP was about 1600 rLM, which was similar to 2-C1-ATP but was 20 fold higher than ADP. Therefore, even if ATP was included, the order of agonist potency was 2-MeS-ATP=2-MeS-ADP>ADP=ADPPS>ATPyS=ATP.

SP168 receptor [2] = target: T1, SP168 receptor; assay: cAMP assay (inhibition of adenylyl cyclase); design: expressed in transfected cells; conditions: adenylyl cyclase / cAMP pathway
Protocol: as §1
The SP168 receptor cDNA was stably transfected into CHO-DHFR cells according standard procedures. The SP168 receptor stable cell line and wild type cell grown on 12-well plates were incubated for 2 hr with […] of medium plus 5 μCi of [3H]adenine/ml. Then 50 μl of Hepes (250 mM, pH 7.5, 50 μM Forskolin, 200 μM IBMX) with the compound to be screened was added to the cells and incubated for 10 minutes at 37 ° C. Incubations were terminated by addition of 0.8 ml of 5% trichloroacetic acid. [^3H]cAMP was purified using Dowex and alumina chromatography as previously described (Harden et al., Mol. Pharmacol. 21:570-580, 1982).

NIH3T3 = assay: FLIPR assay, background response of NIH3T3 cells; conditions: fold higher than ADP
Source text: as §2

T1 sequence (Q9H244 whole entry): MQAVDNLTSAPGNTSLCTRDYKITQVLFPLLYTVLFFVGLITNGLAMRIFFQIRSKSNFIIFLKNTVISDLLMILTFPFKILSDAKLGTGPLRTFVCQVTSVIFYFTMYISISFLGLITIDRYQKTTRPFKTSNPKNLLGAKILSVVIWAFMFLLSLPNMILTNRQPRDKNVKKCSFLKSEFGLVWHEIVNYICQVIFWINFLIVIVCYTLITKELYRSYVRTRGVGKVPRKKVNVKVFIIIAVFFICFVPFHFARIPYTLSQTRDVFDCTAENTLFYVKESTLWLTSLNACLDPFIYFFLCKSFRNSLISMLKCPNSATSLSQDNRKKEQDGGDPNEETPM

| Structure (SMILES) | pEC50 (SP168 receptor [1]) | other results |
| --- | --- | --- |
| CSc1nc(N)c2ncn([C@@H]3O[C@H](COP(=O)(O)OP(=O)(O)O)[C@@H](O)[C@H]3O)c2n1 [2-MeS-ADP] | 8.64 |  |
| CSc1nc(N)c2ncn([C@@H]3O[C@H](COP(=O)(O)OP(=O)(O)OP(=O)(O)O)[C@@H](O)[C@H]3O)c2n1 [2-MeS-ATP] | 8.47 |  |
| Nc1ncnc2c1ncn2[C@@H]1O[C@H](COP(=O)(O)OP(O)(O)=S)[C@@H](O)[C@H]1O [ADPβS] | 7.05 |  |
| Nc1nc(Cl)nc2c1ncn2[C@@H]1O[C@H](COP(=O)(O)OP(=O)(O)OP(=O)(O)O)[C@@H](O)[C@H]1O [2-Cl-ATP] | 6.33 |  |
| Nc1ncnc2c1ncn2[C@@H]1O[C@H](COP(=O)(O)OP(=O)(O)OP(O)(O)=S)[C@@H](O)[C@H]1O [ATPγS] | 5.92 |  |
| Nc1ncnc2c1ncn2[C@@H]1O[C@H](COP(=O)(O)OP(=O)(O)O)[C@@H](O)[C@H]1O [ADP, 5′-adenosine diphosphate] | 7.13 | activation of the SP168 receptor (SP168 receptor [2]): activate the SP168 receptor through inhibition of adenylyl cyclase |
| Nc1ncnc2c1ncn2[C@@H]1O[C@H](COP(=O)(O)OP(=O)(O)OP(=O)(O)O)[C@@H](O)[C@H]1O [ATP] |  | EC50 of background ATP relative to ADP (NIH3T3): 20 fold; shift of dosage curve by SP168 transfection (SP168 receptor [1]; NIH3T3, FLIPR): did not induce the shift of dosage curve |
